Data published in patent US12590094B2, “Compounds for the treatment of neurodegenerative and metabolic disorders” (UNIVERSITY OF FLORIDA RESEARCH FOUNDATION, INCORPORATED, priority 2019, dated 2026).

tested on: Cells exposed to TPrP; test: cells; details: read-out: Viability EC50

Structure (SMILES) | EC50 [nM]
COc1ccc(-c2cc(C(C)(C)C)n3ncc(C(=O)NCCCn4ccnc4)c3n2)cc1 [SR0-28464] | 1.2
COc1ccc(-c2cc(C(F)(F)F)n3ncc(C(=O)NCCCn4ccnc4C(F)(F)F)c3n2)cc1 [SR0-28466] | 20
COc1ccc(-c2cc(C(F)(F)F)n3ncc(C(=O)NCCCn4ccnc4F)c3n2)cc1 [SR0-28467] | 16
CCc1nccn1CCCNC(=O)c1cnn2c(C(F)(F)F)cc(-c3ccc(OC)cc3)nc12 [SR0-29244] | 25
CCOc1ccc(-c2cc(C)n3ncc(C(=O)NCCCn4ccnc4C)c3n2)cc1 [SR0-29245] | 1.2
Cc1nccn1CCCNC(=O)c1cnn2c(C)cc(-c3ccc(OC(F)(F)F)cc3)nc12 [SR0-29246] | 2
Cc1nccn1CCCNC(=O)c1cnn2c(C)cc(-c3ccc4c(c3)OCO4)nc12 [SR0-29247] | 2.2
COc1cc(-c2cc(C)n3ncc(C(=O)NCCCn4ccnc4C)c3n2)cc(OC)c1OC [SR0-29248] | 4
COc1ccc(-c2cc(N3CCCC3)n3ncc(C(=O)NCCCn4ccnc4C)c3n2)cc1 [SR0-29249] | 2.2
COc1ccc(-c2cc(C(F)(F)F)n3nc(C)c(C(=O)NCCCn4ccnc4C)c3n2)cc1 [SR0-29250] | 3.6
Cc1nccn1CCCNC(=O)c1cnn2c(C(C)(C)C)cc(-c3ccc4c(c3)OCO4)nc12 [SR0-31104] | 10
Cc1c(-c2ccc3c(c2)OCO3)nc2c(C(=O)NCCCn3ccnc3C)cnn2c1C [SR0-31106] | 30
Cc1cc(-c2ccc3c(c2)OCO3)nc2c(C(=O)NCCCn3ccnc3S(C)(=O)=O)cnn12 [SR0-31110] | > 50
COc1ccc(-c2cc(C)n3ncc(C(=O)NCCCn4ccnc4)c3n2)cc1 [SR3-5170] | 1
COCc1cc(-c2ccc(OC)cc2)nc2c(C(=O)NCCCn3ccnc3)cnn12 [SR3-5250] | 0.5
COc1ccc(-c2cc(C(F)(F)F)n3ncc(C(=O)NCCn4ccnc4)c3n2)cc1 [SR3-5290] | > 32
CCc1cc(-c2ccc(OC)cc2)nc2c(C(=O)NCCCn3ccnc3)cnn12 [SR3-5310] | 0.6
COc1ccc(-c2cc(C(C)C)n3ncc(C(=O)NCCCn4ccnc4)c3n2)cc1 [SR3-5311] | 0.4
COc1ccc(-c2cc(C(F)(F)F)n3ncc(C(=O)NCCCCn4ccnc4)c3n2)cc1 [SR3-5312] | 6
COc1ccc(-c2cc(C(F)(F)F)n3ncc(C(=O)NCCCn4cnc5ccccc54)c3n2)cc1 [SR3-5313] | > 16
COc1ccc(-c2cc(C(F)(F)F)n3ncc(C(=O)N(C)CCCn4ccnc4)c3n2)cc1 [SR3-5314] | > 16
CCOC(=O)c1c(CC)ncc2[nH]c3cc(OC)c(OC)cc3c12 [SR26084] | ~10000
CCc1c(C(=O)O)ncc2[nH]c3cc(OC)c(OC)cc3c12 [SR26266] | > 4000

Structure (SMILES) | EC50 [nM]
CN(C)S(=O)(=O)c1ccc(Nc2nc(-c3ccncc3)cs2)cc1 [SR-27744] | 60
Cc1nc(C)c(-c2csc(Nc3ccc(S(=O)(=O)N(C)C)cc3)n2)s1 [SR-27764] | 70
CCNS(=O)(=O)c1ccc(Nc2nc(-c3ccncc3)cs2)cc1 [SR-27784] | 60
CCNS(=O)(=O)c1ccc(Nc2nc(-c3sc(C)nc3C)cs2)cc1 [SR-27785] | 500
CCCNS(=O)(=O)c1ccc(Nc2nc(-c3ccncc3)cs2)cc1 [SR-27804] | 170
CCCNS(=O)(=O)c1ccc(Nc2nc(-c3sc(C)nc3C)cs2)cc1 [SR-27805] | > 500
CNS(=O)(=O)c1ccc(Nc2nc(-c3ccncc3)cs2)cc1 [SR-27806] | 60
CCCCNS(=O)(=O)c1ccc(Nc2nc(-c3ccncc3)cs2)cc1 [SR-27808] | 170
CCCCNS(=O)(=O)c1ccc(Nc2nc(-c3sc(C)nc3C)cs2)cc1 [SR-27809] | > 500
c1ccc2c(c1)CCC2Nc1nnc(Cc2ccncc2)c2ccccc12 (stereo not drawn) [SR-27884] | 500
c1ccc2c(c1)CC(Nc1nnc(Cc3ccncc3)c3ccccc13)C2 [SR-27885] | 200
COc1ccc(CNc2nnc(Cc3ccncc3)c3ccccc23)cc1OC [SR-27886] | 140
c1ccc2[nH]c(CNc3nnc(Cc4ccncc4)c4ccccc34)nc2c1 [SR-27887] | 200
c1ccc2oc(CNc3nnc(Cc4ccncc4)c4ccccc34)nc2c1 [SR-27888] | 45
c1ccc2c(c1)CC(Nc1nnc(Cc3ccncc3)c3ccccc13)CO2 (stereo not drawn) [SR-27889] | 200
c1ccc2c(c1)CC(CNc1nnc(Cc3ccncc3)c3ccccc13)CO2 (stereo not drawn) [SR-27890] | 140
c1ccc2c(c1)OCCC2Nc1nnc(Cc2ccncc2)c2ccccc12 (stereo not drawn) [SR-27891] | 200
c1ccc(OCCNc2nnc(Cc3ccncc3)c3ccccc23)cc1 [SR-27892] | 500
O=S(=O)(c1ccc(Nc2nc(-c3ccncc3)cs2)cc1)N1CCCC1 [SR-28544] | 350
Cc1nc(C)c(-c2csc(Nc3ccc(S(=O)(=O)N4CCCC4)cc3)n2)s1 [SR-28545] | > 500
O=S(=O)(c1ccc(Nc2nc(-c3ccncc3)cs2)cc1)N1CCCCC1 [SR-28546] | 400
Cc1nc(C)c(-c2csc(Nc3ccc(S(=O)(=O)N4CCCCC4)cc3)n2)s1 [SR-28547] | > 500
O=S(=O)(c1ccc(Nc2nc(-c3ccncc3)cs2)cc1)N1CCOCC1 [SR-28548] | 170

Structure (SMILES) | EC50 [nM]
Cc1nc(C)c(-c2csc(Nc3ccc(S(=O)(=O)N4CCOCC4)cc3)n2)s1 [SR-28549] | 400
NS(=O)(=O)c1ccc(Nc2nc(-c3ccncc3)c(CO)s2)cc1 [SR-28550] | 60
Cc1nc(C)c(-c2nc(Nc3ccc(S(N)(=O)=O)cc3)sc2CO)s1 [SR-28551] | 300
Cc1nc(N)sc1-c1csc(Nc2ccc(S(N)(=O)=O)cc2)n1 [SR-28552] | 160
O=S(=O)(Nc1ccccc1)c1ccc(Nc2nc(-c3ccncc3)cs2)cc1 [SR-29444] | > 500
Cc1nc(C)c(-c2csc(Nc3ccc(S(=O)(=O)Nc4ccccc4)cc3)n2)s1 [SR-29445] | > 500
Cc1ccc(NS(=O)(=O)c2ccc(Nc3nc(-c4ccncc4)cs3)cc2)cc1 [SR-29446] | > 500
Cc1ccc(NS(=O)(=O)c2ccc(Nc3nc(-c4sc(C)nc4C)cs3)cc2)cc1 [SR-29447] | > 500
O=S(=O)(Nc1ccc(F)cc1)c1ccc(Nc2nc(-c3ccncc3)cs2)cc1 [SR-29448] | > 500
Cc1nc(C)c(-c2csc(Nc3ccc(S(=O)(=O)Nc4ccc(F)cc4)cc3)n2)s1 [SR-29449] | > 500
NS(=O)(=O)c1ccc(Nc2nc(-c3ccc(S(N)(=O)=O)cc3)cs2)cc1 [SR-29450] | 15
CNS(=O)(=O)c1ccc(Nc2nc(-c3ccc(S(N)(=O)=O)cc3)cs2)cc1 [SR-29451] | 20
CC(O)c1cccc(Nc2nnc(Cc3ccncc3)c3ccccc23)c1 (stereo not drawn) [SR-29684] | 2
c1ccc2c(NCC3CCCO3)nnc(Cc3ccncc3)c2c1 (stereo not drawn) [SR-30004] | 45
c1coc(CNc2nnc(Cc3ccncc3)c3ccccc23)c1 [SR-30005] | 15
c1ccc2[nH]c(CNc3nnc(Cc4ccncc4)c4ccccc34)cc2c1 [SR-30006] | 30
c1ccc2c(NCC3CCOCC3)nnc(Cc3ccncc3)c2c1 [SR-30008] | 8
c1ccc2oc(Nc3nnc(Cc4ccncc4)c4ccccc34)nc2c1 [SR-30010] | 2
c1ccc2oc(CNc3nnc(Cc4ccncc4)c4ccccc34)cc2c1 [SR-30011] | 2
CC1(c2cccc(Nc3nnc(Cc4ccncc4)c4ccccc34)c2)OCCO1 [SR-30012] | 2
C/C(=N\O)c1cccc(Nc2nnc(Cc3ccncc3)c3ccccc23)c1 [SR-30013] | 2
CO/N=C(\C)c1cccc(Nc2nnc(Cc3ccncc3)c3ccccc23)c1 [SR-30014] | 2
c1ccc2c(c1)CC(CNc1nnc(Cc3ccncc3)c3ccccc13)O2 (stereo not drawn) [SR-30024] | 8

tested on: PK1 neuroblastoma cells treated with TPrP; test: cells; assay type: cell-based; details: Neuroblastoma cell, read-out: NAD EC50

Structure (SMILES) | EC50 [nM]
COc1cc(OC)c2cc(-c3ccncc3)cnc2c1 [DMPQ] | 5500
NS(=O)(=O)c1ccc(Nc2nc(-c3cc4ccccc4oc3=O)cs2)cc1 [SR1-22833] | 245
CC1=C[C@@H]2c3cccc4[nH]cc(c34)C[C@H]2N(C)C1 [SR1-75354, agroclavine] | 2000
CNC(=O)c1cc2c(cn1)[nH]c1ccccc12 [SR1-75632, N-methyl-9H-pyrido[3,4-b]indole-3-carboxamide] | > 15000
Cc1ccc(-c2nnc3c4ccccc4c(C)nn23)cc1S(=O)(=O)NCCO [SR1-87813] | 733
COc1ccc(-c2nnc3c4ccccc4c(C)nn23)cc1S(=O)(=O)NC(C)(C)CO [SR1-87819] | 682
CNS(=O)(=O)c1cc(-c2nnc3c4ccccc4c(C)nn23)ccc1C [SR1-115255] | 1200
Cc1ccc(-c2nnc3c4ccccc4c(C)nn23)cc1S(=O)(=O)N1CCN(C)CC1 [SR1-115275] | 2600
c1ccc2c(c1)OCC(CNc1nnc(Cc3ccncc3)c3ccccc13)O2 (stereo not drawn) [SR1-134003] | 1200
COc1ccc(-c2csc(Nc3ccc(S(N)(=O)=O)cc3)n2)cc1 [SR1-223735] | 360
NS(=O)(=O)c1ccc(Nc2nc(-c3ccc4ccccc4c3)cs2)cc1 [SR1-281377] | 1200
CC(=O)Nc1cccc(-c2csc(Nc3ccc(S(N)(=O)=O)cc3)n2)c1 [SR1-364643] | 263

tested on: PK1 neuroblastoma cells treated with TPrP; test: cells; assay type: cell-based; details: not given

Structure (SMILES) | neuroprotective activity in the TPrP assay
COc1cc2nccc(Oc3ccc(NC(=O)NC4CC4)c(Cl)c3)c2cc1C(N)=O [lenvatinib, reference compound] | entirely lacked neuroprotective activity
CNC(=O)c1cc(Oc2ccc(NC(=O)Nc3ccc(Cl)c(C(F)(F)F)c3)cc2)ccn1 [sorafenib, reference compound] | entirely lacked neuroprotective activity
COc1cc2nccc(Oc3ccc(NC(=O)Nc4cc(C)on4)c(Cl)c3)c2cc1OC [tivozanib, reference compound] | entirely lacked neuroprotective activity

same assay, conditions: Neuroblastoma cell, read-out: Viability EC50

Structure (SMILES) | EC50 [nM]
COc1cc(OC)c2cc(-c3ccncc3)cnc2c1 [DMPQ] | 505
NS(=O)(=O)c1ccc(Nc2nc(-c3cc4ccccc4oc3=O)cs2)cc1 [SR1-22833] | 57
CC1=C[C@@H]2c3cccc4[nH]cc(c34)C[C@H]2N(C)C1 [SR1-75354, agroclavine] | 1600
CNC(=O)c1cc2c(cn1)[nH]c1ccccc12 [SR1-75632, N-methyl-9H-pyrido[3,4-b]indole-3-carboxamide] | 3200
Cc1ccc(-c2nnc3c4ccccc4c(C)nn23)cc1S(=O)(=O)NCCO [SR1-87813] | 156
COc1ccc(-c2nnc3c4ccccc4c(C)nn23)cc1S(=O)(=O)NC(C)(C)CO [SR1-87819] | 98
CNS(=O)(=O)c1cc(-c2nnc3c4ccccc4c(C)nn23)ccc1C [SR1-115255] | 196
Cc1ccc(-c2nnc3c4ccccc4c(C)nn23)cc1S(=O)(=O)N1CCN(C)CC1 [SR1-115275] | 839
c1ccc2c(c1)OCC(CNc1nnc(Cc3ccncc3)c3ccccc13)O2 (stereo not drawn) [SR1-134003] | 200
COc1ccc(-c2csc(Nc3ccc(S(N)(=O)=O)cc3)n2)cc1 [SR1-223735] | 87
NS(=O)(=O)c1ccc(Nc2nc(-c3ccc4ccccc4c3)cs2)cc1 [SR1-281377] | 192
CC(=O)Nc1cccc(-c2csc(Nc3ccc(S(N)(=O)=O)cc3)n2)c1 [SR1-364643] | 53
